# Results published in US7125990B2, “Imidazolyl derivatives as corticotropin releasing factor inhibitors” (Bristol-Myers Squibb COmpany, priority 2001, dated 2006).
# Biological target: T1, CRF1 receptors (Homo sapiens, UniProt P34998)
# T1 construct: endogenous in cells; host or cells: IMR-32 cells, transformed with 2.5 µM 5'-bromo-2'-deoxyuridine for 10 days; membrane preparation
# T1 sequence (P34998 24-415): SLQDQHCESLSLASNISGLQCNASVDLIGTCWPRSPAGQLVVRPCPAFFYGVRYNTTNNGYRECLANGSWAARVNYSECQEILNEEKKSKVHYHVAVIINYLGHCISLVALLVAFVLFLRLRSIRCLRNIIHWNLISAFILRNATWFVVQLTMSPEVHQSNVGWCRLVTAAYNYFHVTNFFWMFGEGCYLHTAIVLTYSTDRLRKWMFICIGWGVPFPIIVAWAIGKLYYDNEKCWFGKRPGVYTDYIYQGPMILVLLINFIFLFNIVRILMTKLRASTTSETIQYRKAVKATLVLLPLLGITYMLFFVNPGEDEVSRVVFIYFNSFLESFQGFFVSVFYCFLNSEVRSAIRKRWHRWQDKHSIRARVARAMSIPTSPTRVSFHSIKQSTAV
# Test: CRF1 receptor radioligand binding assay ([125I]-oCRF competition, IMR-32 cell membranes)
# Conditions: IMR-32 cell membranes, [125I]-oCRF 100 pM; read-out: Ki (CRF-1R)
# How it was run: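 Buffer: Tris pH 7.2 with MgCl2, BSA, Triton X-100, aprotinin, leupeptin; reaction stopped with ice-cold wash and filtered. Nonspecific binding set with 10 μM oCRF.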
row,SMILES,Ki
1,"CCc1nc2n(-c3c(C)cc(C)cc3C)c(Cl)cn2c1C(=O)N(CC)CC1CC1 [Example 298, 6-Chloro-2-ethyl-7-(2,4,6-trimethylphenyl)-7H-imidazo[1,2-a]imidazole-3-carboxylic acid N-cyclopropylmethyl-N-ethylamide]",< 0.01 µM
2,"CCc1nc2n(-c3c(C)cc(C)cc3C)c(Cl)cn2c1CN(CC)CC1CC1 [Example 299, 3-[(N-Cyclopropylmethyl-N-ethylamino)methyl]-6-chloro-2-ethyl-7-(2,4,6-trimethylphenyl)-7H-imidazo[1,2-a]imidazole]",< 0.1 µM
3,"CCCN(CC1CC1)C(=O)c1c(C)nc2n1CC(=O)N2c1c(C)cc(C)cc1C [Example 301, 2-Methyl-6-oxo-7-(2,4,6-trimethyl-phenyl)-6,7-dihydro-5H-imidazo[1,2-a]imidazole-3-carboxylic acid cyclopropylmethyl-propyl-amide]",< 1 µM
4,"CCCN(CC1CC1)C(=O)c1c(C(F)(F)F)nc2n(-c3c(C)cc(C)cc3C)c(Cl)cn12 [Example 302, 6-Chloro-2-trifluoromethyl-7-(2,4,6-trimethyl-phenyl)-7H-imidazo[1,2-a]imidazole-3-carboxylic acid cyclopropylmethyl-propyl-amide]",< 0.1 µM
5,"Cc1cc(C)c(-n2c(Cl)cn3c(CN(CC4CC4)CC(F)(F)F)c(C(F)(F)F)nc23)c(C)c1 [Example 304, [6-Chloro-2-trifluoromethyl-7-(2,4,6-trimethyl-phenyl)-7H-imidazo[1,2-a]imidazol-3-ylmethyl]-cyclopropylmethyl-(2,2,2-trifluoro-ethyl)-amine]",< 0.01 µM
6,"Cc1cc(C)c(-n2c(Cl)cn3c(CN4CCSCC4)c(C(F)(F)F)nc23)c(C)c1 [Example 306, 2-Chloro-5-thiomorpholin-4-ylmethyl-6-trifluoromethyl-1-(2,4,6-trimethyl-phenyl)-1H-imidazo[1,2-a]imidazole]",< 1 µM
7,"Cc1cc(C)c(-n2c(Cl)cn3c(CN(C)Cc4ccccc4)c(C(F)(F)F)nc23)c(C)c1 [Example 307, Benzyl-[6-chloro-2-trifluoromethyl-7-(2,4,6-trimethyl-phenyl)-7H-imidazo[1,2-a]imidazol-3-ylmethyl]-methyl-amine]",< 1 µM
8,"CCCCN(C)Cc1c(C(F)(F)F)nc2n(-c3c(C)cc(C)cc3C)c(Cl)cn12 [Example 310, Butyl-[6-chloro-2-trifluoromethyl-7-(2,4,6-trimethyl-phenyl)-7H-imidazo[1,2-a]imidazol-3-ylmethyl]-methyl-amine]",< 1 µM
9,"CCCN(Cc1ccc([N+](=O)[O-])cc1)Cc1c(C(F)(F)F)nc2n(-c3c(C)cc(C)cc3C)c(Cl)cn12 [Example 313, [6-Chloro-2-trifluoromethyl-7-(2,4,6-trimethyl-phenyl)-7H-imidazo[1,2-a]imidazol-3-ylmethyl]-(4-nitro-benzyl)-propyl-amine]",< 1 µM
10,"CCN(Cc1ccc(Cl)c(Cl)c1)Cc1c(C(F)(F)F)nc2n(-c3c(C)cc(C)cc3C)c(Cl)cn12 [Example 315, [6-Chloro-2-trifluoromethyl-7-(2,4,6-trimethyl-phenyl)-7H-imidazo[1,2-a]imidazol-3-ylmethyl]-(3,4-dichloro-benzyl)-ethyl-amine]",< 1 µM
11,"Cc1cc(C)c(-n2c(Cl)cn3c(CN4CCC(c5ccccc5)C4)c(C(F)(F)F)nc23)c(C)c1 (stereo not drawn) [Example 317, 2-Chloro-5-(3-phenyl-pyrrolidin-1-ylmethyl)-6-trifluoromethyl-1-(2,4,6-trimethyl-phenyl)-1H-imidazo[1,2-a]imidazole]",< 1 µM
12,Cc1cc(C)c(-n2c(Cl)cn3c(CN(CC4CC4)CC(F)(F)C(F)(F)F)c(C(F)(F)F)nc23)c(C)c1 [Example 318],< 0.01 µM
13,"Cc1cc(C)c(-n2c(Cl)cn3c(CN(CC4CCC4)CC(F)(F)F)c(C(F)(F)F)nc23)c(C)c1 [Example 320, [6-Chloro-2-trifluoromethyl-7-(2,4,6-trimethyl-phenyl)-7H-imidazo[1,2-a]imidazol-3-ylmethyl]-cyclobutylmethyl-(2,2,2-trifluoro-ethyl)-amine]",< 0.01 µM

# Next, values leading:
row,Ki,SMILES
1,< 0.1 µM,CCc1nc2n(-c3c(C)cc(C)cc3C)c(Cl)cn2c1C(=O)N1CC(C)CC(C)C1 (stereo not drawn) [Example 300]
2,< 0.01 µM,"CCCN(Cc1c(C(F)(F)F)nc2n(-c3c(C)cc(C)cc3C)c(Cl)cn12)CC1CC1 [Example 303, [6-Chloro-2-trifluoromethyl-7-(2,4,6-trimethyl-phenyl)-7H-imidazo[1,2-a]imidazol-3-ylmethyl]-cyclopropylmethyl-propyl-amine]"
3,< 1 µM,"Cc1cc(C)c(-n2c(Cl)cn3c(CN4CC=CCC4)c(C(F)(F)F)nc23)c(C)c1 [Example 305, 2-Chloro-5-(3,6-dihydro-2H-pyridin-1-ylmethyl)-6-trifluoromethyl-1-(2,4,6-trimethyl-phenyl)-1H-imidazo[1,2-a]imidazole]"
4,< 1 µM,"Cc1cc(C)c(-n2c(Cl)cn3c(CN(C)CCc4ccccc4)c(C(F)(F)F)nc23)c(C)c1 [Example 308, [6-Chloro-2-trifluoromethyl-7-(2,4,6-trimethyl-phenyl)-7H-imidazo[1,2-a]imidazol-3-ylmethyl]-methyl-phenethyl-amine]"
5,< 1 µM,"CCN(Cc1ccccc1)Cc1c(C(F)(F)F)nc2n(-c3c(C)cc(C)cc3C)c(Cl)cn12 [Example 309, Benzyl-[6-chloro-2-trifluoromethyl-7-(2,4,6-trimethyl-phenyl)-7H-imidazo[1,2-a]imidazol-3-ylmethyl]-ethyl-amine]"
6,< 1 µM,"CCCCN(Cc1ccccc1)Cc1c(C(F)(F)F)nc2n(-c3c(C)cc(C)cc3C)c(Cl)cn12 [Example 311, Benzyl-butyl-[6-chloro-2-trifluoromethyl-7-(2,4,6-trimethyl-phenyl)-7H-imidazo[1,2-a]imidazol-3-ylmethyl]-amine]"
7,< 0.1 µM,"C=C(C)CN(CC)Cc1c(C(F)(F)F)nc2n(-c3c(C)cc(C)cc3C)c(Cl)cn12 [Example 312, [6-Chloro-2-trifluoromethyl-7-(2,4,6-trimethyl-phenyl)-7H-imidazo[1,2-a]imidazol-3-ylmethyl]-ethyl-(2-methyl-allyl)-amine]"
8,< 1 µM,"Cc1cc(C)c(-n2c(Cl)cn3c(CN(C)Cc4ccco4)c(C(F)(F)F)nc23)c(C)c1 [Example 314, [6-Chloro-2-trifluoromethyl-7-(2,4,6-trimethyl-phenyl)-7H-imidazo[1,2-a]imidazol-3-ylmethyl]-furan-2-ylmethyl-methyl-amine]"
9,< 1 µM,"Cc1cc(C)c(-n2c(Cl)cn3c(CN4CCCC4Cc4ccccc4)c(C(F)(F)F)nc23)c(C)c1 (stereo not drawn) [Example 316, 5-(2-Benzyl-pyrrolidin-1-ylmethyl)-2-chloro-6-trifluoromethyl-1-(2,4,6-trimethyl-phenyl)-1H-imidazo[1,2-a]imidazole]"
10,< 0.01 µM,"CCN(Cc1c(C(F)(F)F)nc2n(-c3c(C)cc(C)cc3C)c(Cl)cn12)CC1CC1 [Example 319, [6-Chloro-2-trifluoromethyl-7-(2,4,6-trimethyl-phenyl)-7H-imidazo[1,2-a]imidazol-3-ylmethyl]-cyclopropylmethyl-ethyl-amine]"
11,< 0.01 µM,"CCCN(CCC(F)(F)F)Cc1c(C(F)(F)F)nc2n(-c3c(C)cc(C)cc3C)c(Cl)cn12 [Example 321, [6-Chloro-2-trifluoromethyl-7-(2,4,6-trimethyl-phenyl)-7H-imidazo[1,2-a]imidazol-3-ylmethyl]-propyl-(3,3,3-trifluoro-propyl)-amine]"
